The values below come from article PMC12040169 (PLOS Biology, 2025).

A short description of this data set: in vitro. The note with it: human, hela cells, % viability.
`O=C1COc2ccccc2C/C=C/CC2(CCN(C(=O)c3c[nH]cn3)CC2)C(=O)NCCN1` [CBK291990]: the viability at 28.5 h, 10 µM is 98.3%.
Consider `O=C1NCCNC(=O)C2(C/C=C/COc3ccccc31)CCCN(C(=O)c1cnco1)C2` (stereo not shown) [CBK291993], for which the viability at 28.5 h, 10 µM amounted to 106%.
As to `Cc1noc(C)c1C(=O)N1CC[C@H]2NC(=O)c3ccccc3OCC/C=C/C[C@H]2C1` [CBK291994], the viability at 28.5 h, 10 µM turned out to be 100%.
In the case of `O=C1NCCNC(=O)C2(C/C=C/COc3ccccc31)CCN(C(=O)CCC1CCCC1)CC2` [CBK291995], the viability at 28.5 h, 10 µM worked out at 118%.
Turning to `O=C1COc2ccccc2C/C=C/CC2(CCNCC2)C(=O)NCCN1` [CBK291996], the viability at 28.5 h, 10 µM turned out to be 105%.
For the compound `O=C1COc2ccccc2C/C=C/CC2(CCN(C(=O)c3cnccn3)CC2)C(=O)NCCN1` [CBK291997], the viability at 28.5 h, 10 µM came out at 106%.
On to `O=C1NCCNC(=O)C2(C/C=C/COc3ccccc31)CCN(C(=O)c1ccc3[nH]nnc3c1)CC2` [CBK292000], for which the viability at 28.5 h, 10 µM worked out at 106%.
With `O=C(O)c1ccc(CN2CCC3(C/C=C/CNC(=O)c4ccccc4OCCNC3=O)CC2)cc1` [CBK292002], the viability at 28.5 h, 10 µM was determined as 109%.
Turning to `CCC(=O)N1CCC2(C/C=C/CC(=O)Nc3cccc(n3)C3CN(CCO3)C(=O)CN(C)C2=O)CC1` (stereo not shown) [CBK292004], the viability at 28.5 h, 10 µM is 105%.
In the case of `Cc1cc(C(=O)N2CC[C@H]3NC(=O)c4ccccc4OCCCCC[C@H]3C2)no1` [CBK292005], the viability at 28.5 h, 10 µM amounted to 91.8%.
As to `O=C1NC/C=C/CC2(CCN(C(=O)CCc3cccnc3)CC2)C(=O)NCCOc2ccccc21` [CBK292007], the viability at 28.5 h, 10 µM came to 88.3%.
`O=C1COc2ccccc2CCCCC2(CCCN(CC(=O)N3CCCC3)C2)CN1` (stereo not shown) [CBK292009]: the viability at 28.5 h, 10 µM is 105%.
As for `Cc1cnn(CC(=O)N2CC[C@H]3NC(=O)c4ccccc4OCCCCC[C@H]3C2)c1` [CBK292010], the viability at 28.5 h, 10 µM came to 107%.
For `CC(=O)NCC(=O)N1CCC[C@@H]2[C@H]1CCCCc1ccccc1OCC(=O)N2C` [CBK292011], the viability at 28.5 h, 10 µM is 117%.
For `COc1ccc(CN2CC[C@H]3NC(=O)CNC(=O)C4(C/C=C/C[C@H]3C2)CCN(C(C)=O)CC4)cc1` [CBK292013] the value was 90.4%; for `O=C1NCC2(C/C=C/CCOc3ccccc31)CCN(C(=O)CCN1CCCC1=O)CC2` [CBK292016], 99.3%; for `O=C1NCC2(C/C=C/CCOc3ccccc31)CCN(C(=O)CCN1CCCC1)CC2` [CBK292020], 87.5%.
With `Cc1ccc(CN2CCCC3(C/C=C/COc4ccccc4C(=O)NCCNC3=O)C2)cn1` (stereo not shown) [CBK292022], the viability at 28.5 h, 10 µM amounted to 94%.
For `O=C1NCCNC(=O)C2(C/C=C/COc3ccccc31)CCN(Cc1ccccc1F)CC2` [CBK292024], the viability at 28.5 h, 10 µM worked out at 101%.
Turning to `COc1cccc(CN2CCC3(C/C=C/COc4ccccc4C(=O)NCCNC3=O)CC2)c1F` [CBK292025], the viability at 28.5 h, 10 µM was 108%.
As to `CN1CCOc2ccccc2C(=O)NC/C=C/CC2(CCCNC2)C1=O` (stereo not shown) [CBK292027], the viability at 28.5 h, 10 µM came out at 107%.
As to `Cn1nccc1CCC(=O)N1CC[C@H]2NC(=O)c3ccccc3OCCCCC[C@H]2C1` [CBK292028], the viability at 28.5 h, 10 µM came to 97.4%.
Take `Cn1cnc(C(=O)N2CC[C@H]3NC(=O)c4ccccc4OCCCCC[C@H]3C2)c1` [CBK292031]: the viability at 28.5 h, 10 µM stood at 88.9%.
Consider `O=C1COc2ccccc2C/C=C/CC2(CCCN(C(=O)CN3CCCC3=O)C2)CN1` (stereo not shown) [CBK292032], for which the viability at 28.5 h, 10 µM came to 98.1%.
As for `O=C1COc2ccccc2CCCC[C@@H]2CNCC[C@H]2N1` [CBK292038], the viability at 28.5 h, 10 µM was 105%.
For `CNC(=O)CN1CCC[C@@H]2NC(=O)COc3ccccc3C(=O)N[C@@H]3CCOC[C@@H]3C/C=C/C[C@@H]21` [CBK292040] the value was 100%; for `O=C1N[C@@H]2CCN(C(=O)Cc3ccc(O)cc3)C[C@@H]2C/C=C/CCOc2ccccc21` [CBK292043], 103%.
Regarding `O=C1COc2ccccc2CCCC[C@@H]2CN(C(=O)CCN3CCCC3=O)CC[C@H]2N1` [CBK292044], the viability at 28.5 h, 10 µM came out at 91.8%.
Under `CNC(=O)CN1CC[C@H]2NC(=O)c3ccccc3OCC/C=C/C[C@H]2C1` [CBK292049] stands 110%; under `O=C1CNC(=O)C2(C/C=C/C[C@H]3COCC[C@@H]3N1)CCN(C(=O)CCc1cccnc1)CC2` [CBK292051], 107%; under `CN1CC(=O)N2CCOC(C2)c2cccc(n2)NC(=O)C/C=C/CC2(CCNCC2)C1=O` (stereo not shown) [CBK292053], 102%.
Take `CC(=O)N1CCC[C@H]2NC(=O)CNC(=O)C3(C/C=C/C[C@H]21)CCN(Cc1ccccc1O)CC3` [CBK292054]: the viability at 28.5 h, 10 µM came to 99.3%.
As for `NC(=O)CN1CCCC2(CCCCc3ccccc3OCC(=O)NC2)C1` (stereo not shown) [CBK292058], the viability at 28.5 h, 10 µM was 106%.
Turning to `NC(=O)CCC(=O)N1CCC2(C/C=C/CCOc3ccccc3C(=O)NCCCNC2=O)CC1` [CBK292059], the viability at 28.5 h, 10 µM is 91.7%.
With `CCN1CCC2(C/C=C/CCOc3ccccc3C(=O)NCCCNC2=O)CC1` [CBK292060], the viability at 28.5 h, 10 µM was determined as 83.3%.
Under `CCN1CCC2(C/C=C/CNC(=O)c3ccccc3OCCN(C)C2=O)CC1` [CBK292061] stands 102%; under `O=C1N[C@H]2CCCN(C(=O)c3cc(=O)[nH]c(=O)[nH]3)[C@H]2C/C=C/CCOc2ccccc21` [CBK292065], 107%.
Turning to `O=C1CNC(=O)C2(C/C=C/C[C@H]3COCC[C@H]3N1)CCN(C(=O)Cc1cccnc1)CC2` [CBK292068], the viability at 28.5 h, 10 µM came out at 103%.
In the case of `Cn1cc(C(=O)N2CCC3(C/C=C/C[C@H]4COCC[C@H]4NC(=O)CNC3=O)CC2)cn1` [CBK292069], the viability at 28.5 h, 10 µM came to 103%.
In the case of `Cc1ccn(CCC(=O)N2CCC3(C/C=C/C[C@H]4COCC[C@@H]4NC(=O)CNC3=O)CC2)n1` [CBK292070], the viability at 28.5 h, 10 µM came out at 86%.
Take `Cc1noc(C)c1CC(=O)N1CCC2(C/C=C/C[C@H]3COCC[C@@H]3NC(=O)CNC2=O)CC1` [CBK292071]: the viability at 28.5 h, 10 µM turned out to be 92.3%.
Consider `O=C1CNC(=O)C2(C/C=C/C[C@H]3COCC[C@H]3N1)CCN(CCOc1ccccc1)CC2` [CBK292077], for which the viability at 28.5 h, 10 µM was determined as 107%.
In the case of `CN(CC(=O)N1CCC[C@@H]2[C@H]1C/C=C/Cc1ccccc1OCC(=O)N2C)Cc1ccccn1` [CBK292078], the viability at 28.5 h, 10 µM is 91.5%.
In the case of `CN1C(=O)COc2ccccc2C/C=C/C[C@@H]2[C@H]1CCCN2C(=O)CNS(C)(=O)=O` [CBK292079], the viability at 28.5 h, 10 µM was 87.7%.
Turning to `O=C1NC/C=C/CC2(CCN(c3ncccn3)CC2)C(=O)NCCOc2ccccc21` [CBK292081], the viability at 28.5 h, 10 µM was 90.3%.
For `O=C1COc2ccccc2C/C=C/C[C@H]2CN(C(=O)Cn3ncc4ccccc4c3=O)CC[C@H]2N1` [CBK292084] the value was 85.6%; for `Cc1ncoc1C(=O)N1CCC2(C/C=C/C[C@H]3COCC[C@H]3NC(=O)CNC2=O)CC1` [CBK292086], 89.3%; for `Cc1nc(C(=O)N2CCC3(CCCCOc4ccccc4C(=O)NCCNC3=O)CC2)co1` [CBK292089], 103%.
`CC(=O)N1CC[C@H]2NC(=O)CNC(=O)C3(CCCC[C@H]2C1)CCN(C(=O)/C=C/c1ccccc1)CC3` [CBK292092]: the viability at 28.5 h, 10 µM came to 105%.
